The results in this text go back to PubChem BioAssay (NCI).

Structures are written as SMILES.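 The compound was tested at five concentrations on cells cultured in 96-well plates, with a 48-hour exposure period. Abbreviation: GI50, concentration required for 50% inhibition of growth. TGI: concentration producing complete growth inhibition.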

What all share (assay): inhibition of tumour cell growth, NCI panel, 48 h
The subject of assay [1] is MOLT-4 leukemia.
In assay [2] the test system is MDA-MB-435.
Assay [3] deals with SF-295 CNS.
The subject of assay [4] is BT-549 breast.
Assay [5] relates to A498 renal.
In assay [6] the test system is NCI-H522 lung.
The test system of assay [7] is OVCAR-4 ovarian.
Assay [8] has as its system COLO 205 colon.
Assay [9] concerns MDA-MB-231 breast.
In assay [10] the test system is HOP-62 NSCLC.

Take `COc1cc2ncnc(-n3ncc4cc(NC(=O)Nc5ccc(Cl)c(Cl)c5)ccc43)c2cc1OC`: the GI50 in [1] was 2.04 µM; in [2], 1.84 µM; in assay [3] it was 1.38 µM; in [4], 1.97 µM; in assay [5], 2.37 µM; in assay [6] it was 2.5 µM. The GI50 in assay [7] is 1.92 µM; in assay [8], 2.32 µM; in [9] it was 1.96 µM; in assay [10], 1.91 µM. For the same compound, the TGI in [1] is 11.4 µM; in [2], 4.29 µM; in assay [3], 2.94 µM; in assay [4] it was 4.17 µM; in assay [5], 6.24 µM; in assay [6], 6 µM. The TGI in [7] was 3.89 µM; in [8] it was 5.58 µM; in [9], 4.03 µM; in assay [10] it was 3.76 µM.

With `COc1cccc(CN(C)c2ccc(CO)c(Cl)c2)c1`, the GI50 in [1] is 33.1 µM; in assay [2] it was 19.7 µM; in assay [3], 3.71 µM; in [4] it was 19.8 µM; in assay [5] it was 0.0311 µM; in assay [6] it was 22 µM. Moreover, the GI50 in assay [7] was 1.19 µM; in [8], 3.18 µM; in [9], 31 µM; in assay [10] it was 5.33 µM. The TGI in assay [1] is above 100 µM; in assay [2], 66.2 µM; in assay [3] it was above 66.2 µM; in [4], 80 µM; in assay [5], 0.154 µM; in assay [6], above 74.3 µM. Also, the TGI in assay [7] is 29.4 µM; in assay [8] it was 11.7 µM; in assay [9] it was above 100 µM; in assay [10], above 87.7 µM.

Consider `O=S1(=O)N(Cc2ccccc2)[C@@H](Cc2ccccc2)[C@H](O)[C@H](O)[C@H](Cc2ccccc2)N1Cc1ccccc1`, for which the GI50 in assay [1] is 2.86 µM; in assay [2], 3.33 µM; in assay [3] it was 2.62 µM; in [4], 2.65 µM; in [5], 2.45 µM; in assay [6], 0.847 µM. Further, the GI50 in [7] was 2.72 µM; in [8] it was 4.26 µM; in assay [9], 2.82 µM; in [10] it was 3.71 µM. The TGI in [1] was determined as 10.2 µM; in assay [2] it was 7.1 µM; in [3], 5.68 µM; in [4] it was 5.53 µM; in assay [5], 5.18 µM; in [6], 4.79 µM. Further, the TGI is 7.26 µM in assay [7], 10.4 µM in assay [8], 6.39 µM in [9] and 7.34 µM in assay [10].

As to `Oc1c(Cl)cc(Cl)c2ccc(Cn3cc(-c4cc(C(F)(F)F)cc(C(F)(F)F)c4)nn3)nc12`, the GI50 in assay [1] was 0.823 µM; in [2], 1.82 µM; in assay [3], 17 µM; in assay [4], 1.84 µM; in [5], 2.6 µM; in assay [6], 1.25 µM. Also, the GI50 in assay [7] is 1.27 µM; in [8], 1.35 µM; in assay [9], 2 µM; in [10], 15.5 µM. Moreover, the TGI in assay [1] stood at 5.91 µM; in assay [2], 4.18 µM; in assay [3], 31 µM; in assay [4] it was 4.41 µM; in [5], 10.8 µM; in [6], 3.55 µM. Besides, the TGI was determined as 2.75 µM in assay [7], 2.89 µM in [8], 4.95 µM in [9] and 30.7 µM in assay [10].

For `Cc1ccc2nc(-c3ccc(OCC(=O)N=Nc4c(O)[nH]c5ccccc45)cc3)[nH]c2c1`, the GI50 in assay [1] is 2.99 µM; in assay [2], 1.95 µM; in assay [3], 19.4 µM; in assay [4], 45.1 µM; in [5], above 100 µM; in assay [6] it was 2 µM. The GI50 in [7] was 1.95 µM; in assay [8] it was 4.03 µM; in assay [9], 1.83 µM; in assay [10] it was 19 µM. Further, the TGI is 8.87 µM in assay [1]; 3.88 µM in assay [2]; 49.7 µM in [3]; above 100 µM in assay [4]; above 100 µM in assay [5]; 5.09 µM in [6]. The TGI is 4.09 µM in [7], above 100 µM in [8], 3.93 µM in [9] and 45.4 µM in [10].

Turning to `CCCCCCCC(=O)OCCCC1[C@]2(C)CC[C@@]3(C)C([C@H](C)CCC=C(C)C)CC[C@]3(C)C2CC[C@]12OC2(C)C` (some centres undefined), the GI50 in [1] is 22.1 µM; in [2], 36.6 µM; in assay [3], 31.2 µM; in assay [4] it was 88.6 µM; in assay [5], above 100 µM; in assay [6] it was 35.1 µM. For the same compound, the GI50 in [7] is 78.9 µM; in assay [8] it was 39.7 µM; in assay [9] it was 10.8 µM; in [10], above 100 µM. The TGI in assay [1] is 57.1 µM; in assay [2], above 100 µM; in [3] it was above 100 µM; in assay [4], above 100 µM; in assay [5] it was above 100 µM; in assay [6] it was above 100 µM. Further, the TGI in assay [7] was above 100 µM; in assay [8], above 100 µM; in assay [9], 34.6 µM; in assay [10], above 100 µM.

Regarding `C=C/C(C)=C/C[C@]1(C)[C@H](C)[C@@H](OC(=O)CCC)[C@H](O)[C@@]23C(=C[C@H](OC)C[C@@H]12)[C@@H](OC(=O)CCC)O[C@H]3OC(C)=O`, the GI50 in [1] is 0.348 µM; in assay [2], 0.298 µM; in assay [3] it was 0.992 µM; in assay [4], 1.11 µM; in [5], 0.223 µM; in assay [6] it was 0.239 µM. The GI50 in assay [7] was 0.351 µM; in assay [8], 0.444 µM; in [9] it was 0.857 µM; in [10], 1.62 µM. Further, the TGI in [1] stood at 1.55 µM; in [2] it was 0.95 µM; in assay [3], 2.48 µM; in assay [4] it was 2.75 µM; in [5], 0.645 µM; in assay [6], 0.741 µM. Besides, the TGI in assay [7] was 1.34 µM; in assay [8], 1.73 µM; in assay [9], 2.45 µM; in assay [10], 3.62 µM.

With `CCn1c(-c2cc3c([nH]c4ccccc43)c(-c3cccc(O)c3)n2)n[nH]c1=S`, the GI50 is 2.38 µM in assay [1]; 0.0496 µM in [2]; 3.24 µM in [3]; 3.51 µM in assay [4]; 0.327 µM in assay [5]; 2.02 µM in assay [6]. The GI50 is 3.12 µM in assay [7], 7.65 µM in [8], 2.79 µM in assay [9] and 4.71 µM in [10]. Further, the TGI turned out to be 6.77 µM in assay [1]; 2.94 µM in [2]; 22.8 µM in [3]; 25.9 µM in assay [4]; 4.38 µM in assay [5]; 7.07 µM in assay [6]. For the same compound, the TGI in [7] is 13.1 µM; in assay [8] it was 24.3 µM; in assay [9] it was 15.6 µM; in [10], 16 µM.

Regarding `O=C(O)/C=C\C(=O)Nc1ccccn1`, the TGI in assay [1], in [2], in assay [3], in [4], in [5] and in assay [6] was above 100 µM throughout. The TGI in assay [7], in assay [8], in assay [9] and in assay [10] was above 100 µM in each case.

For the compound `CN(C)c1ccc(/C=C2\N=C(c3ccccc3)N(c3cc(C(F)(F)F)ccc3Cl)C2=O)cc1`, the GI50 in assay [1], in assay [2], in [3], in assay [4], in assay [5] and in assay [6] was above 100 µM each time. Moreover, the GI50 is above 69 µM in assay [7], above 100 µM in assay [8], above 100 µM in assay [9] and above 100 µM in [10]. The TGI in assay [1], in assay [2], in assay [3], in [4], in [5] and in assay [6] was above 100 µM each time. Besides, the TGI in [7], in assay [8], in assay [9] and in assay [10] was above 100 µM each time.

Regarding `C#CCNC(=S)N/N=C(\C)c1ccccn1`, the GI50 in [1] is 0.126 µM; in [2], 3.1 µM; in assay [3] it was 0.706 µM; in [4], 0.618 µM; in assay [5], 1.07 µM; in [6], 3.33 µM. The GI50 in assay [7] was 0.0519 µM; in assay [8], 0.184 µM; in assay [9] it was 0.292 µM; in assay [10] it was 1.25 µM. Besides, the TGI in assay [2] was above 100 µM; in assay [3], above 100 µM; in [4], above 100 µM; in assay [5] it was 10.1 µM; in [6], above 100 µM; in assay [7], 1.35 µM. Moreover, the figures for the TGI in assay [8], in assay [9] and in [10] were above 100 µM, above 100 µM and 16 µM, respectively.
